Measured values reported in patent publication US11098033B2, “Ku inhibitors and their use” (INDIANA UNIVERSITY RESEARCH AND TECHNOLOGY CORPORATION, priority 2016, dated 2021).
“And” between values parts separate entries of the source, which are not always exact repeats. Equal values may be shown once.

Target: T1, Recombinant human Ku heterodimer (Homo sapiens, UniProt P12956+P13010)
T1 construct: made in house; host or cells: insect cells infected with recombinant baculovirus
Experiment: Ku-DNA binding assay
Details: IC50 (concentration that inhibits 50% of the binding activity), titration into Ku-DNA binding reactions (FIG. 1, FIG. 2)
Description: Ku is a DNA end-binding protein that is essential for the repair of DNA double strand breaks via the NHEJ pathway. The mechanism of DNA binding by Ku is via a toroid structure that encircles double-stranded DNA from a terminus.

T1 sequence (P12956 whole entry): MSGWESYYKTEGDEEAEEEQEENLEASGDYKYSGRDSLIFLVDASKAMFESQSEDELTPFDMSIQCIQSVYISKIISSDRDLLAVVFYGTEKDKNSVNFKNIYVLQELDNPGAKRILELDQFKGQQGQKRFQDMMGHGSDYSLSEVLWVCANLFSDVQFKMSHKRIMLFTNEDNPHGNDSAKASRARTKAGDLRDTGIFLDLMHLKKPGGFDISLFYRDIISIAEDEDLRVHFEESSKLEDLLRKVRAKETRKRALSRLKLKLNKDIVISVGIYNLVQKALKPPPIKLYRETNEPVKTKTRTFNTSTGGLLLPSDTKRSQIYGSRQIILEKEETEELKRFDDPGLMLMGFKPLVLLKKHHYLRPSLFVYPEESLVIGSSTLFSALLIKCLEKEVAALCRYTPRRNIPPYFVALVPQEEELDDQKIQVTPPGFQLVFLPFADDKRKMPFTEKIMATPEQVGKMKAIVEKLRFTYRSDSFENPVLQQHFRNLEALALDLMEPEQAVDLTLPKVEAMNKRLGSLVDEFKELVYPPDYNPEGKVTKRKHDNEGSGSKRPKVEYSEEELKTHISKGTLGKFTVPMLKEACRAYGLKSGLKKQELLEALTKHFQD
T1 sequence (P13010 whole entry): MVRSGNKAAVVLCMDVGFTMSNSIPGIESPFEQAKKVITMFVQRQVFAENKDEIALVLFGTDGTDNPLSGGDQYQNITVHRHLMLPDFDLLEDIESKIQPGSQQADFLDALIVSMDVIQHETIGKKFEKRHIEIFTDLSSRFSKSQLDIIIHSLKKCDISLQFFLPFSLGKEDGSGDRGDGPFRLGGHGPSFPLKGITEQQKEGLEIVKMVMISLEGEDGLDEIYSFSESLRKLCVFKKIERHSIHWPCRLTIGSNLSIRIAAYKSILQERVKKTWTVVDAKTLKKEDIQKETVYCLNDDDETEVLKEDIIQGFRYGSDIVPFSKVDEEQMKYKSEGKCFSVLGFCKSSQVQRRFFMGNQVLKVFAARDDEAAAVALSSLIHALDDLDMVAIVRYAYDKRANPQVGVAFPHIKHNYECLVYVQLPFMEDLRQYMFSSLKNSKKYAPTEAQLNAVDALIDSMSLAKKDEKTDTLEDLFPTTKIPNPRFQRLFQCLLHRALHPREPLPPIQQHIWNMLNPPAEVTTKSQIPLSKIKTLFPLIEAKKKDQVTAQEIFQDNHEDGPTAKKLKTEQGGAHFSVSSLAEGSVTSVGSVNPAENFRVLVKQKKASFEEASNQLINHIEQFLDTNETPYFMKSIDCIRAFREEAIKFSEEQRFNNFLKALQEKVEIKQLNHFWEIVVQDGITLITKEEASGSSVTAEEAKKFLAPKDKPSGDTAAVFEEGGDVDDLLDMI

Row | IC50 | SMILES
1 | ~75 µM | CC1=NN(c2cccc(C(=O)O)c2)C(=O)/C1=C\c1ccc(-c2ccc(Cl)c(C(=O)O)c2)o1 [X80, (Z)-5-(5-((1-(3-Carboxyphenyl)-3-methyl-5-oxo-1H-pyrazol-4(5H)-ylidene)methyl)furan-2-yl)-2-chlorobenzoic acid]
2 | ~5 µM | CCCCOC(=O)c1cc(-c2ccc(/C=C3\C(=O)N(c4ccc(Cl)c(C(=O)O)c4)N=C3C)o2)ccc1Cl [compound 0530, reference compound]

Same assay, conditions: Table 1, purchased second generation inhibitors; several values in a cell = separate determinations; read-out: IC50

Row | IC50 | SMILES
3 | 21 µM and 19 µM | CC1=NN(c2ccc(Cl)c(C(=O)O)c2)C(=O)/C1=C\c1ccc(-c2ccc([N+](=O)[O-])cc2Br)o1 [compound 0277, reference compound]
4 | 13 µM and 7 µM and 9 µM | CC1=NN(c2cccc(C(=O)O)c2)C(=O)/C1=C\c1ccc(-c2cc([N+](=O)[O-])ccc2C)o1 [compound 0302, reference compound]
5 | 5.6 µM | CCCCOC(=O)c1cc(-c2ccc(/C=C3\C(=O)N(c4ccc(Cl)c(C(=O)O)c4)N=C3C)o2)ccc1Cl [compound 0530, reference compound]
6 | 65 µM | CC1=NN(c2cccc(C(=O)O)c2)C(=O)/C1=C\c1ccc(-c2cccc(C(=O)O)c2)o1 [compound 0803, reference compound]
7 | 190 µM | COc1cc([N+](=O)[O-])ccc1-c1ccc(/C=C2\C(=O)N(c3cccc(C(=O)O)c3)N=C2C)o1 [compound 0814, reference compound]
8 | 91 µM | CC1=NN(c2cccc(C(=O)O)c2)C(=O)/C1=C\c1ccc(-c2ccccc2C(=O)O)o1 [compound 0949, reference compound]

Same assay, conditions: Table 2, synthesized derivatives; several values in a cell = separate determinations; read-out: IC50

Row | SMILES | IC50
9 | CC1=NN(c2cccc(C(=O)O)c2)C(=O)/C1=C\c1ccc(-c2ccc(Cl)c(C(=O)NCC3CC3)c2)o1 [NG-01-70, (Z)-3-(4-((5-(4-Chloro-3-((cyclopropylmethyl)carbamoyl)phenyl)furan-2-yl)methylene)-3-methyl-5-oxo-4,5-dihydro-1H-pyrazol-1-yl)benzoic acid] | 25 µM and > 50 µM
10 | COc1cccc(NC(=O)c2ccc(/C=C3\C(=O)N(c4cccc(C(=O)O)c4)N=C3C)o2)c1 [NG-02-162/ NG-02-162C, (Z)-3-(4-((5-((3-methoxyphenyl)carbamoyl)furan-2-yl)methylene)-3-methyl-5-oxo-4,5-dihydro-1H-pyrazol-1-yl)benzoic acid] | 8 µM and 11 µM
11 | COc1cccc(NC(=O)c2cc(-c3ccc(/C=C4\C(=O)N(c5cccc(-c6nnn[nH]6)c5)N=C4C)o3)ccc2Cl)c1 [NG-02-201/ NG-03-244] | 4 µM
12 | COc1cccc(NC(=O)c2cc(-c3ccc(/C=C4\C(=O)N(c5cccc(-c6nnn[nH]6)c5)N=C4C)o3)ccc2Cl)c1 [NG-03-201, (Z)-5-(5-((1-(3-(1H-Tetrazol-5-yl)phenyl)-3-methyl-5-oxo-1,5-dihydro-4H-pyrazol-4-ylidene)methyl)furan-2-yl)-2-chloro-N-(3-methoxyphenyl)benzamide] | 4.5 µM and 6.5 µM
13 | CC1=NN(c2ccc(S(N)(=O)=O)cc2)C(=O)/C1=C\c1ccc(-c2ccc(Cl)c(C(=O)NCC3CC3)c2)o1 [NG-03-212, (Z)-2-chloro-N-(cyclopropylmethyl)-5-(5-((3-methyl-5-oxo-1-(4-sulfamoylphenyl)-1,5-dihydro-4H-pyrazol-4-ylidene)methyl)furan-2-yl)benzamide] | 30 µM
14 | CC1=NN(c2cccc(C(=O)O)c2)C(=O)/C1=C\c1ccc(-c2ccc(Cl)c(C(=O)O)c2)s1 [NG-03-224, (Z)-5-(5-((1-(3-Carboxyphenyl)-3-methyl-5-oxo-1,5-dihydro-4H-pyrazol-4-ylidene)methyl)thiophen-2-yl)-2-chlorobenzoic acid] | 15 µM
15 | CC1=NN(c2cccc(C(=O)O)c2)C(=O)/C1=C\c1ccc(-c2ccc(Cl)c(C(=O)NCC3CC3)c2)s1 [NG-03-226, (Z)-3-(4-((5-(4-Chloro-3-((cyclopropylmethyl)carbamoyl)phenyl)thiophen-2-yl)methylene)-3-methyl-5-oxo-4,5-dihydro-1H-pyrazol-1-yl)benzoic acid] | 7 µM
16 | CC1=NN(c2cccc(C(=O)O)c2)C(=O)C1Cc1ccc(-c2ccc(Cl)c(C(=O)NCC3CC3)c2)s1 (centres unmarked) [NG-03-231, 3-(4-((5-(4-Chloro-3-((cyclopropylmethyl)carbamoyl)phenyl)thiophen-2-yl)methyl)-3-methyl-5-oxo-4,5-dihydro-1H-pyrazol-1-yl)benzoic acid] | 12 µM
17 | CC1=NN(c2ccc(C(=O)O)cc2)C(=O)/C1=C\c1ccc(-c2ccc(Cl)c(C(=O)O)c2)s1 [NG-03-234, (Z)-5-(5-((1-(4-Carboxyphenyl)-3-methyl-5-oxo-1,5-dihydro-4H-pyrazol-4-ylidene)methyl)thiophen-2-yl)-2-chlorobenzoic acid] | 6 µM
18 | CC1=NN(c2cccc(C(=O)O)c2)C(=O)/C1=C\c1ccc(-c2ccc(Cl)c(C(=O)NCc3ccccc3)c2)o1 [NG-03-270, (Z)-3-(4-((5-(3-(Benzylcarbamoyl)-4-chlorophenyl)furan-2-yl)methylene)-3-methyl-5-oxo-4,5-dihydro-1H-pyrazol-1-yl)benzoic acid] | 10 µM

Next, values leading:

Row | IC50 | SMILES
19 | 8 µM | CC1=NN(c2cccc(C(=O)O)c2)C(=O)C1Cc1ccc(-c2ccc(Cl)c(C(=O)NCc3ccc(F)cc3)c2)o1 (centres unmarked) [NG-01-65, 3-(4-((5-(4-Chloro-3-((4-fluorobenzyl)carbamoyl)phenyl)furan-2-yl)methyl)-3-methyl-5-oxo-4,5-dihydro-1H-pyrazol-1-yl)benzoic acid]
20 | 10 µM | CC1=NN(c2cccc(C(=O)O)c2)C(=O)C1Cc1ccc(-c2ccc(Cl)c(C(=O)NCC3CC3)c2)o1 (centres unmarked) [NG-01-72, 3-(4-((5-(4-Chloro-3-((cyclopropylmethyl)carbamoyl)phenyl)furan-2-yl)methyl)-3-methyl-5-oxo-4,5-dihydro-1H-pyrazol-1-yl)benzoic acid]
21 | 3 µM | CCOC(=O)c1cccc(N2N=C(C)/C(=C/c3ccc(-c4ccc(Cl)c(C(=O)Nc5cccc(OC)c5)c4)o3)C2=O)c1 [NG-02-130, (Z)-Ethyl 3-(4-((5-(4-chloro-3-((3-methoxyphenyl)carbamoyl)phenyl)furan-2-yl)methylene)-3-methyl-5-oxo-4,5-dihydro-1H-pyrazol-1-yl)benzoate]
22 | 3 µM | CCOC(=O)c1cccc(N2N=C(C)C(Cc3ccc(-c4ccc(Cl)c(C(=O)Nc5cccc(OC)c5)c4)o3)C2=O)c1 (centres unmarked) [NG-02-131, Ethyl 3-(4-((5-(4-chloro-3-((3-methoxyphenyl)carbamoyl)phenyl)furan-2-yl)methyl)-3-methyl-5-oxo-4,5-dihydro-1H-pyrazol-1-yl)benzoate]
23 | 11 µM | COc1cccc(NC(=O)c2ccc(CC3C(=O)N(c4cccc(C(=O)O)c4)N=C3C)o2)c1 (centres unmarked) [NG-02-165, 3-(4-((5-((3-Methoxyphenyl)carbamoyl)furan-2-yl)methyl)-3-methyl-5-oxo-4,5-dihydro-1H-pyrazol-1-yl)benzoic acid]
24 | 12.5 µM and 6 µM | COc1cccc(NC(=O)c2cc(-c3ccc(CC4C(=O)N(c5ccc(C(=O)O)cc5)N=C4C)o3)ccc2Cl)c1 (centres unmarked) [NG-03-188, 4-(4-((5-(4-Chloro-3-((3-methoxyphenyl)carbamoyl)phenyl)furan-2-yl)methyl)-3-methyl-5-oxo-4,5-dihydro-1H-pyrazol-1-yl)benzoic acid]
25 | 14 µM | COc1ccc(NC(=O)c2cc(-c3ccc(/C=C4\C(=O)N(c5cccc(C(=O)O)c5)N=C4C)o3)ccc2Cl)cc1OC [NG-03-189, (Z)-3-(4-((5-(4-chloro-3-((3,4-dimethoxyphenyl)carbamoyl)phenyl)furan-2-yl)methylene)-3-methyl-5-oxo-4,5-dihydro-1H-pyrazol-1-yl)benzoic acid]
26 | 20 µM | COc1cccc(NC(=O)c2cc(-c3ccc(/C=C4\C(=O)N(c5ccc(S(N)(=O)=O)cc5)N=C4C)o3)ccc2Cl)c1 [NG-03-196, (Z)-2-chloro-N-(3-methoxyphenyl)-5-(5-((3-methyl-5-oxo-1-(4-sulfamoylphenyl)-1,5-dihydro-4H-pyrazol-4-ylidene)methyl)furan-2-yl)benzamide]
27 | 18 µM | COc1cccc(NC(=O)c2cc(-c3ccc(/C=C4\C(=O)N(c5cccc(C(=O)O)c5)N=C4C)s3)ccc2Cl)c1 [NG-03-203, (Z)-3-(4-((5-(4-chloro-3-((3-methoxyphenyl)carbamoyl)phenyl)thiophen-2-yl)methylene)-3-methyl-5-oxo-4,5-dihydro-1H-pyrazol-1-yl)benzoic acid]
28 | 7.5 µM | COc1ccc(NC(=O)c2cc(-c3ccc(CC4C(=O)N(c5cccc(C(=O)O)c5)N=C4C)o3)ccc2Cl)cc1OC (centres unmarked) [NG-03-206, 3-(4-((5-(4-Chloro-3-((3,4-dimethoxyphenyl)carbamoyl)phenyl)furan-2-yl)methyl)-3-methyl-5-oxo-4,5-dihydro-1H-pyrazol-1-yl)benzoic acid]
29 | 7 µM | COc1cccc(NC(=O)c2cc(-c3ccc(CC4C(=O)N(c5cccc(C(=O)O)c5)N=C4C)s3)ccc2Cl)c1 (centres unmarked) [NG-03-207, 3-(4-((5-(4-chloro-3-((3-Methoxyphenyl)carbamoyl)phenyl)thiophen-2-yl)methyl)-3-methyl-5-oxo-4,5-dihydro-1H-pyrazol-1-yl)benzoic acid]
30 | 8.75 µM | CCOC(=O)c1ccc(N2N=C(C)/C(=C/c3ccc(-c4ccc(Cl)c(C(=O)Nc5cccc(OC)c5)c4)s3)C2=O)cc1 [NG-03-235, Ethyl (Z)-4-(4-((5-(4-chloro-3-((3-methoxyphenyl)carbamoyl)phenyl)thiophen-2-yl)methylene)-3-methyl-5-oxo-4,5-dihydro-1H-pyrazol-1-yl)benzoate]
31 | 10 µM | COc1cccc(NC(=O)c2cc(-c3ccc(/C=C4\C(=O)N(c5ccc(C(=O)O)cc5)N=C4C)s3)ccc2Cl)c1 [NG-03-236, (Z)-4-(4-((5-(4-Chloro-3-((3-methoxyphenyl)carbamoyl)phenyl)thiophen-2-yl)methylene)-3-methyl-5-oxo-4,5-dihydro-1H-pyrazol-1-yl)benzoic acid]
32 | 14 µM | COc1cccc(NC(=O)c2cc(-c3ccc(CC4C(=O)N(c5ccc(C(=O)O)cc5)N=C4C)s3)ccc2Cl)c1 (centres unmarked) [NG-03-238, 4-(4-((5-(4-Chloro-3-((3-methoxyphenyl)carbamoyl)phenyl)thiophen-2-yl)methyl)-3-methyl-5-oxo-4,5-dihydro-1H-pyrazol-1-yl)benzoic acid]
